Results published in patent publication US10874743B2, “IRAK degraders and uses thereof” (Kymera Therapeutics, Inc., priority 2017, dated 2020).

Target: T1, IRAK4 (Homo sapiens, UniProt Q9NWZ3)
T1 sequence (Q9NWZ3 1-460): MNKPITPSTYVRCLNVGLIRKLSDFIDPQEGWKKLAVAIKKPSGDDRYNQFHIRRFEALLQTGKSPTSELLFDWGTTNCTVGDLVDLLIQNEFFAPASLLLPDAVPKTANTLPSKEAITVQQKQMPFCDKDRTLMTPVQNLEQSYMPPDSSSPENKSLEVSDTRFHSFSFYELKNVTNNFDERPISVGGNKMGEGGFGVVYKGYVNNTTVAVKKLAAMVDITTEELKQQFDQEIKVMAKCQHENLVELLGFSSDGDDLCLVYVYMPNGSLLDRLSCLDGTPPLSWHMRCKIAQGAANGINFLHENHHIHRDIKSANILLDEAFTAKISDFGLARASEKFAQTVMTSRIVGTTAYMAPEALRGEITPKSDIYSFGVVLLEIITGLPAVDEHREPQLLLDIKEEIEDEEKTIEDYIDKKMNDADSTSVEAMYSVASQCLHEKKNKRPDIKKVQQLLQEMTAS
Test: OCI-LY-10 degradation assay (western blot, % IRAK4 degraded after 4 hours)
Assay type: cell-based
Set-up: endogenous in cells; host or cells: OCI-LY10
Details: OCI-LY10 cells, 4 hours; for OCI-LY10 % IRAK4 Degradation (0.01 uM): 0.01 uM compound; for OCI-LY10 % IRAK4 Degradation (0.1 uM): 0.1 uM compound; for OCI-LY10 % IRAK4 Degradation (1 uM): 1 uM compound
Summary of the method: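 OCI-LY10 cells (RPMI-1640, 20% FBS, 55 μM 2-ME) treated with compound at 0.003-10 μM final for 4 h at 37° C, then lysed in RIPA buffer. IRAK4 level read by fluorescent western blot (20-25 μg protein) and binned as % degraded: A >50%, B >20-50%, C <20%.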

SMILES	OCI-LY10 % IRAK4 Degradation (0.01 uM)	OCI-LY10 % IRAK4 Degradation (0.1 uM)	OCI-LY10 % IRAK4 Degradation (1 uM)
O=C1CCC(N2C(=O)c3cccc(NCCOCCN4CCO[C@@H](CNC(=O)c5ccc(-n6cc(NC(=O)c7coc(-c8ccnc(NCC(F)(F)F)c8)n7)c(C(F)F)n6)cc5)C4)c3C2=O)C(=O)N1 (stereo partly drawn) [I-282]	C (<20% degradation)	C (<20% degradation)	C (<20% degradation)
CC(=O)O[C@@H]1C[C@@H](C(=O)NCc2ccc(-n3cc(NC(=O)c4coc(-c5ccnc(NCC6CC6)c5)n4)c(C(F)F)n3)cc2)N(C(=O)[C@@H](NC(=O)COCCOCCOCCNc2cccc3c2C(=O)N(C2CCC(=O)NC2=O)C3=O)C(C)(C)C)C1 (stereo partly drawn) [I-285]	C (<20% degradation)	C (<20% degradation)	B (>20-50% degradation)
NC(=O)c1nn(-c2ccc(COCC3CCCCN3CCOCCNc3cccc4c3C(=O)N(C3CCC(=O)NC3=O)C4=O)cc2)cc1NC(=O)c1coc(-c2ccnc(NCC(F)(F)F)c2)n1 (stereo not drawn) [I-303, N-[3-carbamoyl-1-[4-[[1-[2-[2-[[2-(2,6-dioxo-3-piperidyl)-1,3-dioxo-isoindolin-4-yl]amino]ethoxy]ethyl]-2-piperidyl]methoxymethyl]phenyl]pyrazol-4-yl]-2-[2-(2,2,2-trifluoroethylamino)-4-pyridyl]oxazole-4-carboxamide]	B (>20-50% degradation)	A (>50% degradation)	A (>50% degradation)
NC(=O)c1nn(Cc2cn(CCOCCOCCNc3cccc4c3C(=O)N(C3CCC(=O)NC3=O)C4=O)nn2)cc1NC(=O)c1coc(-c2ccnc(NCC3CC3)c2)n1 (stereo not drawn) [I-304, N-[3-carbamoyl-1-[[1-[2-[2-[2-[[2-(2,6-dioxo-3-piperidyl)-1,3-dioxo-isoindolin-4-yl]amino]ethoxy]ethoxy]ethyl]triazol-4-yl]methyl]pyrazol-4-yl]-2-[2-(cyclopropylmethylamino)-4-pyridyl]oxazole-4-carboxamide]	C (<20% degradation)	C (<20% degradation)	C (<20% degradation)
NC(=O)c1nn(-c2ccc(CNCC3CCCCN3CCOCCNc3cccc4c3C(=O)N(C3CCC(=O)NC3=O)C4=O)cc2)cc1NC(=O)c1coc(-c2ccnc(NCC(F)(F)F)c2)n1 (stereo not drawn) [I-306]	C (<20% degradation)	B (>20-50% degradation)	B (>20-50% degradation)
O=C1CCC(N2C(=O)c3cccc(NCCNCCOCCNCc4ccc(-n5cc(NC(=O)c6coc(-c7ccnc(NCC8CC8)c7)n6)c(C(F)(F)F)n5)cc4)c3C2=O)C(=O)N1 (stereo not drawn) [I-307]	C (<20% degradation)	C (<20% degradation)	C (<20% degradation)
CN(CCOCCOCCCc1ccc2c(c1)C(=O)N(C1CCC(=O)NC1=O)C2=O)Cc1ccc(-n2cc(NC(=O)c3coc(-c4ccncc4)n3)c(C(N)=O)n2)cc1 (stereo not drawn) [I-309]	B (>20-50% degradation)	A (>50% degradation)	A (>50% degradation)
CN(CCOCCOCCCc1ccc2c(c1)C(=O)N(C1CCC(=O)NC1=O)C2=O)Cc1ccc(-n2cc(NC(=O)c3coc(-c4ccnc(NCC5CC5)c4)n3)c(C(F)F)n2)cc1 (stereo not drawn) [I-310]	C (<20% degradation)	A (>50% degradation)	A (>50% degradation)
NC(=O)c1nn(-c2ccc(CNCCCCCOCCCc3cccc4c3C(=O)N(C3CCC(=O)NC3=O)C4=O)cc2)cc1NC(=O)c1coc(-c2ccnc(NCC3CC3)c2)n1 (stereo not drawn) [I-311]	C (<20% degradation)	A (>50% degradation)	A (>50% degradation)
CN(CCCCCOCCCc1cccc2c1C(=O)N(C1CCC(=O)NC1=O)C2=O)Cc1ccc(-n2cc(NC(=O)c3coc(-c4ccnc(NCC5CC5)c4)n3)c(C(N)=O)n2)cc1 (stereo not drawn) [I-312]	C (<20% degradation)	A (>50% degradation)	A (>50% degradation)
CN(CCCCCCc1cccc2c1C(=O)N(C1CCC(=O)NC1=O)C2=O)Cc1ccc(-n2cc(NC(=O)c3coc(-c4ccnc(NCC5CC5)c4)n3)c(C(N)=O)n2)cc1 (stereo not drawn) [I-314]	C (<20% degradation)	B (>20-50% degradation)	B (>20-50% degradation)
CN(CCCCCNCCCc1cccc2c1C(=O)N(C1CCC(=O)NC1=O)C2=O)C(=O)c1ccc(-n2cc(NC(=O)c3coc(-c4ccnc(NCC5CC5)c4)n3)c(C(N)=O)n2)cc1 (stereo not drawn) [I-315]	C (<20% degradation)	C (<20% degradation)	B (>20-50% degradation)
CN(CCCCCCCCCc1cccc2c1C(=O)N(C1CCC(=O)NC1=O)C2=O)Cc1ccc(-n2cc(NC(=O)c3coc(-c4ccnc(NCC5CC5)c4)n3)c(C(N)=O)n2)cc1 (stereo not drawn) [I-316]	B (>20-50% degradation)	B (>20-50% degradation)	B (>20-50% degradation)
NC(=O)c1nn(-c2ccc(CNCCCCCCCCCc3cccc4c3C(=O)N(C3CCC(=O)NC3=O)C4=O)cc2)cc1NC(=O)c1coc(-c2ccnc(NCC3CC3)c2)n1 (stereo not drawn) [I-317]	C (<20% degradation)	C (<20% degradation)	B (>20-50% degradation)
NC(=O)c1nn(-c2ccc(CNCCOCCCc3cccc4c3CN(C3CCC(=O)NC3=O)C4=O)cc2)cc1NC(=O)c1coc(-c2ccnc(NCC(F)(F)F)c2)n1 (stereo not drawn) [I-318]	C (<20% degradation)	A (>50% degradation)	B (>20-50% degradation)
NC(=O)c1nn(-c2ccc(CNCCOCCOCCOCCOCCCc3cccc4c3C(=O)N(C3CCC(=O)NC3=O)C4=O)cc2)cc1NC(=O)c1coc(-c2ccnc(NCC(F)(F)F)c2)n1 (stereo not drawn) [I-322]	C (<20% degradation)	C (<20% degradation)	A (>50% degradation)
NC(=O)c1nn(-c2ccc(CNCCOCCOCCOCCOCC#Cc3cccc4c3C(=O)N(C3CCC(=O)NC3=O)C4=O)cc2)cc1NC(=O)c1coc(-c2ccnc(NCC(F)(F)F)c2)n1 (stereo not drawn) [I-323]	B (>20-50% degradation)	A (>50% degradation)	A (>50% degradation)
NC(=O)c1nn(-c2ccc(CNCCOCCOCCCc3cccc4c3CN(C3CCC(=O)NC3=O)C4=O)cc2)cc1NC(=O)c1coc(-c2ccnc(NCC3CC3)c2)n1 (stereo not drawn) [I-324]	B (>20-50% degradation)	A (>50% degradation)	B (>20-50% degradation)
NC(=O)c1nn(-c2ccc(CNCCOCCOCCOCCCc3cccc4c3CN(C3CCC(=O)NC3=O)C4=O)cc2)cc1NC(=O)c1coc(-c2ccnc(NCC3CC3)c2)n1 (stereo not drawn) [I-325]	B (>20-50% degradation)	A (>50% degradation)	A (>50% degradation)
